Results from patent US20250230193A1, “CYCLIC COMPOUND HAVING SELECTIVE KRAS INHIBITORY EFFECT ON HRAS AND NRAS” (CHUGAI SEIYAKU KABUSHIKI KAISHA, priority 2022, published 2025).

Key:
[1] = biological target: GDP-bound NRAS wild-type protein (Homo sapiens, UniProt P01111); assay: Binding to NRAS by surface plasmon resonance (SPR), Single Cycle Kinetics; details: SPR
[2] = biological target: GDP-bound HRAS wild-type protein (Homo sapiens, UniProt P01112); assay: Binding to HRAS by surface plasmon resonance (SPR), Single Cycle Kinetics; details: SPR
[3] = KD ratio, GDP-bound NRAS wild-type vs GDP-bound KRAS wild-type
[4] = KD ratio, GDP-bound HRAS wild-type vs GDP-bound KRAS wild-type
[5] = GDP-bound NRAS wild-type vs GDP-bound KRAS wild-type
[6] = GDP-bound HRAS wild-type vs GDP-bound KRAS wild-type

Sequence of GDP-bound NRAS wild-type protein (P01111 whole entry): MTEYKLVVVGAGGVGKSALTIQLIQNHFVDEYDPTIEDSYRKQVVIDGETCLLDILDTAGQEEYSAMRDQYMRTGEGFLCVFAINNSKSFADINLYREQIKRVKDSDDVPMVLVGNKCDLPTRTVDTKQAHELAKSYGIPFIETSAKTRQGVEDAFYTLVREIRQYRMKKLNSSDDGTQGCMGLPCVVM
Sequence of GDP-bound HRAS wild-type protein (P01112 whole entry): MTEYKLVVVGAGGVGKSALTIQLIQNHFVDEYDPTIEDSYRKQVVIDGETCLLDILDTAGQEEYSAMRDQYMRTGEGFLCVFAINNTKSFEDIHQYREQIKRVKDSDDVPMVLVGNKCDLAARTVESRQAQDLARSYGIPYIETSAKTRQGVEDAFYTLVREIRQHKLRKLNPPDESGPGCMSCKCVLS

For CC[C@H](C)[C@@H]1NC(=O)[C@@H]2CCCCc3ccc(cc3)C[C@@H](C(=O)N(C)CC(=O)N[C@@H](CCc3ccc(C(F)(F)F)c(OC)c3)C(=O)N3C[C@H](OC(C)C)C[C@H]3C(=O)NC3(CC(C)(C)C3)C(=O)N(C)[C@@H](C3CCCC3)C(=O)N(C)[C@H](C(=O)N(C)CC)CC(=O)N2C)N2CC/C=C\C[C@@H](C2=O)N(C)C(=O)CN(C)C1=O [PP3078], the “NRAS/KRAS (ratio of KD value with respect to GDP-bound NRAS wild-type protein to KD value with respect to KRAS)” value ([1]; GDP-bound wild-type proteins) was “A (a compound having 10 or more and less than 20 is denoted as A)” and the “HRAS/KRAS (ratio of KD value with respect to GDP-bound HRAS wild-type protein to KD value with respect to KRAS)” value ([2]; GDP-bound wild-type proteins) was “B (a compound having 3 or more and less than 10 is denoted as B)”.
In the case of CCO[C@@H]1C[C@H]2C(=O)NC3(CC(C)(C)C3)C(=O)N(C)[C@@H](C3CCCC3)C(=O)N(C)[C@H](C(=O)N(C)C)CC(=O)N(C)[C@@H](CC3CCC3)C(=O)N[C@@H]([C@@H](C)CC)C(=O)N(C)CC(=O)N(C)[C@H]3C/C=C\CCN(C3=O)[C@@H](Cc3ccc(C(F)(F)F)cc3)C(=O)N(C)CC(=O)N[C@@H](CCc3cc(F)c(C(F)(F)F)c(F)c3)C(=O)N2C1 [PP1651], the “NRAS/KRAS (ratio of KD value for NRAS to KD value for KRAS)” value [1, 3] is reported as “A (a compound having 10 or more and less than 20 is denoted as A)” and the “HRAS/KRAS (ratio of KD value for HRAS to KD value for KRAS)” value [2, 4] is reported as “B (a compound having 3 or more and less than 10 is denoted as B)”.
In the case of CCCO[C@H](C)[C@@H]1NC(=O)[C@H](COCC)N(C)C(=O)C[C@@H](C(=O)N(C)CC)N(C)C(=O)[C@H](C2CCCC2)N(C)C(=O)C2(CC(C)(C)C2)NC(=O)[C@@H]2C[C@H](C)CN2C(=O)[C@H](CCc2cc(F)c(C(F)(F)F)c(F)c2)NC(=O)CN(C)C(=O)[C@H](Cc2ccc(C)cc2)N2CC/C=C\C[C@@H](C2=O)N(C)C(=O)CN(C)C1=O [PP2426], the “NRAS/KRAS (ratio of KD value with respect to NRAS to KD value with respect to KRAS)” value [1, 5] is reported as “AA (a compound having 20 or more is denoted as AA)” and the “HRAS/KRAS (ratio of KD value with respect to HRAS to KD value with respect to KRAS)” value [2, 6] is reported as “A (a compound having 10 or more and less than 20 is denoted as A)”.
For CCC[C@H]1C(=O)N[C@@H]([C@@H](C)CC)C(=O)N(C)CC(=O)N(C)[C@H]2C/C=C\CCN(C2=O)[C@@H](Cc2ccc(C(F)(F)F)cc2)C(=O)N(C)CC(=O)N[C@@H](CCc2ccc(Cl)c(Cl)c2)C(=O)N2C[C@H](OCC)C[C@H]2C(=O)NC2(CC(C)(C)C2)C(=O)N(C)[C@@H](C(CC)CC)C(=O)N(C)[C@H](C(=O)N(C)C)CC(=O)N1C [PP2175], the “NRAS/KRAS (ratio of KD value with respect to NRAS to KD value with respect to KRAS)” value [1, 5] was “AA (a compound having 20 or more is denoted as AA)” and the “HRAS/KRAS (ratio of KD value with respect to HRAS to KD value with respect to KRAS)” value [2, 6] was “A (a compound having 10 or more and less than 20 is denoted as A)”.
With C=CCCCC[C@H]1C(=O)N[C@@H]([C@@H](C)CC)C(=O)N(C)CC(=O)N(C)[C@H]2CCCCN(C2=O)[C@@H](Cc2ccc(C(F)(F)F)cc2)C(=O)N(C)CC(=O)N[C@@H](CCc2cc(F)c(C(F)(F)F)c(F)c2)C(=O)N2C[C@H](OCC)C[C@H]2C(=O)N[C@](C)(CC=C)C(=O)N(C)[C@@H](C2CCCC2)C(=O)N(C)[C@H](C(=O)N2CCOCC2)CC(=O)N1C [PP0877] the “NRAS/KRAS (ratio of KD value with respect to NRAS to KD value with respect to KRAS)” value [1, 3] was “C (A compound having a KD ratio of 0.1 or more and less than 3 is denoted as C)” and the “HRAS/KRAS (ratio of KD value with respect to HRAS to KD value with respect to KRAS)” value [2, 4] was “B (a compound having 3 or more and less than 10 is denoted as B)”.
CCO[C@@H]1C[C@H]2C(=O)NC3(CCC3)C(=O)N(C)[C@@H](C3CCCC3)C(=O)N(C)[C@H](C(=O)N(C)C)CC(=O)N(C)[C@@H](CC3CCC3)C(=O)N[C@@H]([C@@H](C)CC)C(=O)N(C)CC(=O)N(C)[C@H]3CCCCN(C3=O)[C@@H](Cc3ccc(C(F)(F)F)cc3)C(=O)N(C)CC(=O)N[C@@H](CCc3cc(F)c(C(F)(F)F)c(F)c3)C(=O)N2C1 [PP0698] was tested, and the “NRAS/KRAS (ratio of KD value with respect to GDP-bound NRAS wild-type protein to KD value with respect to KRAS)” value [1] was “C (A compound having a KD ratio of 0.1 or more and less than 3 is denoted as C)” and the “HRAS/KRAS (ratio of KD value with respect to GDP-bound HRAS wild-type protein to KD value with respect to KRAS)” value [2] was “C (A compound having a KD ratio of 0.1 or more and less than 3 is denoted as C)”.
In the case of CCO[C@@H]1C[C@H]2C(=O)NC3(CCCC3)C(=O)N(C)[C@@H](C3CCCC3)C(=O)N(C)[C@H](C(=O)N(C)C)CC(=O)N(C)[C@@H](CC(C)C)C(=O)N[C@@H]([C@@H](C)CC)C(=O)N(C)CC(=O)N(C)[C@H]3C/C=C\CCN(C3=O)[C@@H](Cc3ccc(C)cc3)C(=O)N(C)CC(=O)N[C@@H](CCc3ccc(C(F)(F)F)c(OC)c3)C(=O)N2C1 [PP2197], the “NRAS/KRAS (ratio of KD value with respect to NRAS to KD value with respect to KRAS)” value [1, 5] is reported as “A (a compound having 10 or more and less than 20 is denoted as A)” and the “HRAS/KRAS (ratio of KD value with respect to HRAS to KD value with respect to KRAS)” value [2, 6] is reported as “B (a compound having 3 or more and less than 10 is denoted as B)”.
